From patent US20140017339A1, “MATERIALS AND METHODS FOR TREATING RADIATION POISONING” (priority 2010, published 2014)

Experiments:
[1] = test system: marrow HPC of irradiated mice; experiment: Colony assays: total CFC (CFU-GM, BFU-E, CFU-GEMM) per femur after irradiation; assay type: in vivo, C57B1/6 mice
Description: After 30 days, analysis of total CFC(CFU-GM, BFU-E and CFU-GEMM) was performed in methylcellulose culture. Referring now to FIG. 2B, data are Mean±SEM from N=5 mice per group, each assayed individually.
Irradiated mice were identified by ear punches and treated with either a single subcutaneous dose of dmPGE2 (40 μg/mouse) or vehicle control at 6 hours post-irradiation (N=20 mice per group, evenly split male/female); 6 mg/kg meloxicam dosed once daily on days 2 through 5 post-irradiation or vehicle control (N=20 or 40 mice per group, respectively, evenly split male/female); or a single subcutaneous dose of CoCl2 (60 mg/kg) at 6 hours post-irradiation (N=20 mice per group, evenly split male/female). One mouse per treatment group was housed in each individual cage.
After 35 days, remaining irradiated mice were sacrificed, bone marrow acquired from femurs, and total CFC including CFU-GM, BFU-E and CFU-GEMM were enumerated in 1% methylcellulose/IMDM containing 30% HI-FBS, 1 U/ml rhEPO, 10 ng/ml rhGM-CSF and 50 ng/ml rmSCF as described (Broxmeyer et al., 2007; Fukuda et al., 2007). All cultures were established in triplicate from individual animals, incubated at 37° C., 5% CO2, 5% O2 in air for 7 days and colonies quantified by microscopy.
Referring now to FIG. 2B, after 30 days, analysis of total CFC(CFU-GM, BFU-E and CFU-GEMM) was performed in methylcellulose culture. Data are Mean±SEM from N=5 mice per group, each assayed individually.

[2] = test system: irradiated mice (796 cGys, LD50); experiment: 30-day survival after irradiation, murine HS-ARS model; assay type: in vivo, C57B1/6 mice; conditions: 30 days
Description: Male and female C57B1/6 mice were purchased from Jackson Laboratories at 10-12 weeks of age. Mice were housed in microisolator cages (5 mice per cage) with sterilized direct contact bedding (Alpha Dri). Animal holding rooms were maintained at 21±3° C. with 30 to 80% relative humidity, with at least 10 air changes per hour of 100% fresh air, and a 12-hour light/dark cycle. Mice were fed ad libitum with commercial rodent chow (Harlan 2018SXC) in cage hoppers and acidified (pH 2.0-3.0) water in sipper tube bottles. The Institutional Animal Care and Use Committee of IUSM approved all protocols.
Mice were placed in single chambers of a plexiglass irradiation pie (Braintree), with 15 mice per pie, alternating groups of males and females within the same pie. The mice in each group of mice, irradiated together in the same pie, were divided equally among all treatment groups to ensure that each group received the same irradiation exposure conditions. […]
Cohorts of 20-40 mice were irradiated with an LD50 dose from a ^137Cs source. […] Animals were monitored for morbidity and mortality twice/daily for 30 days and euthanized when moribund. Referring now to FIG. 2A, survival curves were analyzed with a log-rank test. […]
Moribund mice were scored for signs of early euthanasia based on three parameters: the severity of hunched posture, squinted/closed eyes, and decreased activity. Each criterion was scored on a scale of 1 to 3, with 3 being the most severe. Moribund mice with a score of 8 or 9 were euthanized and the date of death was recorded.
Irradiated mice with therapeutic exogenously provided amounts of PGE2 mitigated the damage to hematopoietic cells observed post-irradiation with dmPGE2 treatment, using a murine HS-ARS model developed by Dr. Orschell at IUSM. […] Animals were monitored for morbidity and mortality twice/daily for 30 days and euthanized when moribund. Survival curves were analyzed with a log-rank test.

bone marrow HPC = experiment: NSAID effect on bone marrow progenitor cell expansion in non-irradiated mice (CFU-GM); assay type: in vivo; conditions: NSAID twice daily for 4 days, assayed on day 5
Description: Mice were administered dual (Indomethacin, meloxicam), COX2 selective (Valdecoxib) or COX1 selective (SC560) inhibitors twice daily for 4 days. Referring now to FIG. 1, on day 5, mice were sacrificed, bone marrow from one femur isolated, total nucleated cells counted on a Hemavet 950FS and CFU-GM determined. Data are Mean±SEM for N=5 mice per group, each assayed individually.

HSC = conditions: WO 2010/054271, cited from earlier work

[Cl][Co][Cl] [CoCl2, cobalt chloride]
CFC in bone marrow ([1]; single subcutaneous dose 60 mg/kg at 6 hours post-irradiation, day 35): significantly increased CFC in bone marrow | percent survival ([2]; single subcutaneous dose 60 mg/kg at 6 hours post-irradiation, P=0.0011): 95%

CCCCC(C)(C)[C@H](O)/C=C/[C@H]1[C@H](O)CC(=O)[C@@H]1C/C=C\CCCC(=O)O [dmPGE2, 16,16 dimethyl prostaglandin E2]
marrow HPC (total CFC per femur) versus control irradiated mice ([1]; single subcutaneous dose 40 μg/mouse at 6 hours post-irradiation, 796 cGys, day 35): significantly higher than control irradiated mice | percent survival ([2]; single subcutaneous dose 40 μg/mouse at 6 hours post-irradiation, 796 cGys, control 50% survival, P=0.0011): 95%

Cc1cnc(NC(=O)C2=C(O)c3ccccc3S(=O)(=O)N2C)s1 [meloxicam, 4-hydroxy-2-methyl-N-(5-methyl-2-thiazolyl)-2H-1,2-benzothiazine-3-carboxamide-1,1-dioxide]
bone marrow CFC content versus control ([1]; 6 mg/kg once daily on days 2 through 5 post-irradiation, femurs 35 days post-irradiation): significantly increased bone marrow CFC content compared to control | HPC expansion in bone marrow (bone marrow HPC): increase HPCs within the bone marrow | percent survival ([2]; 6 mg/kg once daily on days 2 through 5 post-irradiation, control 50% survival, P=0.034): 80%

CCCCC[C@H](O)/C=C/[C@H]1[C@H](O)CC(=O)[C@@H]1C/C=C\CCCC(=O)O [PGE2, prostaglandin E2]
homing/engraftment in bone marrow transplants (HSC): increased homing/engraftment | apoptosis of HSC (HSC; through up-regulation of Survivin): decreased apoptosis
